Experimental data published in patent US20140127192A1, “METHOD FOR TREATING OSTEOPOROSIS” (AMGEN INC, priority 2011, published 2014).

How the values were obtained:
[1] = test system: bone resorption marker (CTX) and bone formation markers (P1NP, BSAP, OC); test: Bone turnover markers in the same study (serum CTX, P1NP, BSAP, OC); format: in vivo, human; conditions: open label active control
Excerpt: A subject's physiological response to an anti-sclerostin antibody can be gauged by monitoring bone marker levels. Bone markers are products created during the bone remodeling process and are released by bone, osteoblasts, and/or osteoclasts. Fluctuations in bone resorption and/or bone formation “marker” levels imply changes in bone remodeling/modeling. The International Osteoporosis Foundation (IOF) recommends using bone markers to monitor bone density therapies (see, e.g., Delmas et al., Osteoporos Int., Suppl. 6:S2-17 (2000), incorporated herein by reference). Markers indicative of bone resorption (or osteoclast activity) include, for example, C-telopeptide (e.g., C-terminal telopeptide of type 1 collagen (CTX) or serum cross-linked C-telopeptide), N-telopeptide (N-terminal telopeptide of type 1 collagen (NTX)), deoxypyridinoline (DPD), pyridinoline, urinary hydroxyproline, galactosyl hydroxylysine, and tartrate-resistant acid phosphatase (e.g., serum tartrate-resistant acid phosphatase isoform 5b). Bone formation/mineralization markers include, but are not limited to, bone-specific alkaline phosphatase (BSAP), peptides released from N- and C-terminal extension of type I procollagen (P1NP, PICP), and osteocalcin (OC). Several kits are commercially-available to detect and quantify markers in clinical samples, such as urine and blood.
A multicenter, international, randomized, parallel group study in postmenopausal women with low BMD at lumbar vertebrae, total hip or femoral neck was conducted. 419 subjects were randomized to receive one of five regimens of an anti-sclerostin antibody, placebo, open label alendronate (ALN), or open label teriparatide (TPTD) for 12 months. The placebo group was further randomized to match the schedules corresponding to the five anti-sclerostin antibody regimens. […] BMD was measured by DXA. […]

[2] = test system: postmenopausal women with low BMD at lumbar vertebrae, total hip or femoral neck; test: Randomized multicenter study, BMD measured by DXA in postmenopausal women with low BMD; format: in vivo, human; conditions: open label active control arm; for Femoral Neck BMD % Change from Baseline, Mean / Lumbar Vertebrae BMD % Change from Baseline, Mean / Total Hip BMD % Change from Baseline, Mean: 12 months; for mean percent change of lumbar vertebrae BMD from pretreatment baseline: month 6; for mean percent change of distal ⅓ radius BMD from pretreatment baseline: month 12
Method: This example describes in vivo studies wherein an anti-sclerostin antibody improved bone mineral density in postmenopausal women.
A multicenter, international, randomized, parallel group study in postmenopausal women with low BMD at lumbar vertebrae, total hip or femoral neck was conducted. 419 subjects were randomized to receive one of five regimens of an anti-sclerostin antibody, placebo, open label alendronate (ALN), or open label teriparatide (TPTD) for 12 months. The placebo group was further randomized to match the schedules corresponding to the five anti-sclerostin antibody regimens. The subject distribution was as follows: 52 subjects to the placebo arm, 51 subjects to ALN arm, 55 subjects to TPTD arm, and 51, 54, 51, 53, and 52 subjects to anti-sclerostin antibody 70 mg QM, 140 mg Q3M, 140 mg QM, 210 mg Q3M, and 210 mg QM arms, respectively. 383 subjects completed the 12 months of study. Among all subjects enrolled in the study, the mean age was 66.8 years old, 86.4% of subjects were Caucasian, and the mean pretreatment baseline lumbar vertebrae and total hip BMD T-scores were −2.29 and −1.53, respectively. The primary analysis occurred after all subjects had the opportunity to complete the month 12 study visit. BMD was measured by DXA. Overall, the proportions of patients reporting adverse events were balanced between placebo arm and anti-sclerostin antibody arms.

Structure (SMILES)	adaptive response (bone formation markers falling to approximately baseline within two to six months) [1]	Femoral Neck BMD % Change from Baseline, Mean [2] [%]	Lumbar Vertebrae BMD % Change from Baseline, Mean [2] [%]	Total Hip BMD % Change from Baseline, Mean [2] [%]	mean percent change of lumbar vertebrae BMD from pretreatment baseline [2] [%]	mean percent change of distal ⅓ radius BMD from pretreatment baseline [2] [%]	bone formation markers over the course of treatment [1]
NCCCC(O)(P(=O)(O)O)P(=O)(O)O [ALN, alendronate]	not observed	1.2	4.1	1.9	2.6	−0.3	
CC[C@H](C)[C@H](NC(=O)[C@H](CCC(=O)O)NC(=O)[C@H](CO)NC(=O)[C@@H](NC(=O)[C@@H](N)CO)C(C)C)C(=O)N[C@@H](CCC(N)=O)C(=O)N[C@@H](CC(C)C)C(=O)N[C@@H](CCSC)C(=O)N[C@@H](Cc1cnc[nH]1)C(=O)N[C@@H](CC(N)=O)C(=O)N[C@@H](CC(C)C)C(=O)NCC(=O)N[C@@H](CCCCN)C(=O)N[C@@H](Cc1cnc[nH]1)C(=O)N[C@@H](CC(C)C)C(=O)N[C@@H](CC(N)=O)C(=O)N[C@@H](CO)C(=O)N[C@@H](CCSC)C(=O)N[C@@H](CCC(=O)O)C(=O)N[C@@H](CCCN=C(N)N)C(=O)N[C@H](C(=O)N[C@@H](CCC(=O)O)C(=O)N[C@@H](Cc1c[nH]c2ccccc12)C(=O)N[C@@H](CC(C)C)C(=O)N[C@@H](CCCN=C(N)N)C(=O)N[C@@H](CCCCN)C(=O)N[C@@H](CCCCN)C(=O)N[C@@H](CC(C)C)C(=O)N[C@@H](CCC(N)=O)C(=O)N[C@@H](CC(=O)O)C(=O)N[C@H](C(=O)N[C@@H](Cc1cnc[nH]1)C(=O)N[C@@H](CC(N)=O)C(=O)N[C@@H](Cc1ccccc1)C(=O)O)C(C)C)C(C)C [TPTD, teriparatide]	not observed	1.1	7.1	1.3	4.8	−1.7	remained elevated
